Measurements from patent US11503826B2, “Low volatility auxin herbicide formulations” (priority 2009, dated 2022).
Counter-ions that a name gives are not always drawn.

Key:
[1] = Distillation volatility: dicamba in distillate by HPLC/MS; format: physicochemical; details: for ppm Dicamba in distillate: Table 4h summary, 5% a.e. salt solution
Procedure: The pH was measured on a standard Orion Model 320 pH meter of each neat solution.
Simple distillation using a short path still was used to collect the water distillate containing the dicamba in the vapor phase of the salt solutions. A 50 mL distillation flask was used. The distillation receiver was a “cow” type with four 2 mL graduated sections. The solutions were heated at the 30% setting of the GlassCol heating unit and the boiling point of each distillation was noted. The first 2 ml of distillate was collected, and the receiver rotated to avoid collection of any further distillate in that section as the distillation flask cooled. The 2 mL sample was quantitatively transferred by pipette to HPLC vials for later analysis. Between each distillation the distillation apparatus was washed with 10 volumes of tap water, 10 volumes of distilled water, rinsed with acetone, and dried in a 60° C. oven. Each distillation was run in triplicate.
The distillate was collected and analyzed for dicamba concentration using HPLC/Mass Spectroscopy (MS). The HPLC column was an Agilent Zorbax Eclipse XDB-C8, 4.6×150 mm, 5u, PN 993967-90. Mobile phase A was 0.1% formic acid in D.I. water. Mobile phase B was 0.1% formic acid in acetonitrile. A flow rate of 1.2 mL/min was used and an injection volume of 5, 10, 15 or 25 ul was used depending on the dicamba level in the sample. The following gradient was used: […]
The MS parameters were as follows: Type SIR; ES-ion mode; 0.05 second inter channel delay; 0.05 second interscan time; 0.5 span (Da); 10 minutes elapsed time; and 6-6000 ppb calibration range. […] Channel 2 mass was 177 (Da); Dwell was 0.25(s); Cone(V)=tune and; 0.05(s) delay.

[2] = Aqueous solubility of dicamba acid and dicamba salts; details: for aqueous solubility wt % a.i. @20° C.: dicamba salts; for Comments (crystal formation) / solubility 0° C. a.e. / solubility 0° C. a.i. / solubility 20° C. a.e. / solubility 20° C. a.i.: Table 10a; for Comments (crystal formation): dicamba salt solutions; for solubility 0° C. a.e. / solubility 0° C. a.i. / solubility 20° C. a.e. / solubility 20° C. a.i.: dicamba salt; for solubility 0° C. a.e. / solubility 0° C. a.i.: equilibrated 5 to 7 days at 0° C.; for solubility 0° C. a.e. / solubility 20° C. a.e.: acid equivalent; for solubility 0° C. a.i. / solubility 20° C. a.i.: active ingredient; for solubility 20° C. a.e. / solubility 20° C. a.i.: equilibrated 5 to 7 days at 20° C.; for solubility 20° C. a.e.: 0.45 micron filter, HPLC
Excerpt: The solution was then passed through a 0.45 micron filter and assayed by HPLC for soluble dicamba.

CNC [DMA]
Mean Dicamba in Distillate ([1]; 1% a.e. dicamba, solution pH 3.25): 4.50 ppm | Mean Dicamba in Distillate ([1]; 1% a.e. dicamba, solution pH 4.36): 0.57 ppm | Mean Dicamba in Distillate ([1]; 1% a.e. dicamba, solution pH 6.11): 0.30 ppm | Mean Dicamba in Distillate ([1]; 1% a.e. dicamba, solution pH 8.53): 0.73 ppm | Mean Dicamba in Distillate ([1]; 1% a.e. dicamba, solution pH 10.12): 1.32 ppm | Mean Dicamba in Distillate ([1]; 2% a.e. dicamba, solution pH 3.20): 9.19 ppm | Mean Dicamba in Distillate ([1]; 2% a.e. dicamba, solution pH 4.25): 1.08 ppm | Mean Dicamba in Distillate ([1]; 2% a.e. dicamba, solution pH 5.97): 0.83 ppm | Mean Dicamba in Distillate ([1]; 2% a.e. dicamba, solution pH 8.66): 1.98 ppm | Mean Dicamba in Distillate ([1]; 2% a.e. dicamba, solution pH 10.24): 4.88 ppm | Mean Dicamba in Distillate ([1]; 5% a.e. dicamba, solution pH 3.18): 20.10 ppm | Mean Dicamba in Distillate ([1]; 5% a.e. dicamba, solution pH 4.22): 2.67 ppm | Mean Dicamba in Distillate ([1]; 5% a.e. dicamba, solution pH 5.58): 2.06 ppm | Mean Dicamba in Distillate ([1]; 5% a.e. dicamba, solution pH 8.69): 8.43 ppm | Mean Dicamba in Distillate ([1]; 5% a.e. dicamba, solution pH 10.17): 12.34 ppm | ppm Dicamba in distillate ([1]; pH 5.58): 2.1 ppm | ppm Dicamba in distillate ([1]; pH 8.69): 8.4 ppm

COc1c(Cl)ccc(Cl)c1C(=O)O.NCCOCCO [Dicamba DGA salt, reference compound]
aqueous solubility Approximate g a.e./L @20° C. [2]: 700 g a.e./L | aqueous solubility wt % a.e. @20° C. [2]: 56.5 wt % a.e. | aqueous solubility wt % a.e. @20° C. ([2]; Table 10b, second experiment, dicamba acid and salts): 56.5 wt % a.e. | aqueous solubility wt % a.i. @20° C. ([2]; Table 10b, second experiment): 83.4 wt % a.i. | crystal formation from concentrated salt solution ([2]; solubility experiment, Example 10): several weeks

COc1c(Cl)ccc(Cl)c1C(=O)O [Dicamba potassium salt]
aqueous solubility Approximate g a.e./L @20° C. ([2]; listed as potassium dicamba): 720 g a.e./L | aqueous solubility wt % a.e. @20° C. ([2]; listed as potassium dicamba): 54.6 wt % a.e. | Comments (crystal formation) ([2]; listed as K): Crystals form on | solubility 0° C. a.e. ([2]; listed as K): 52.7 wt % | solubility 0° C. a.i. ([2]; listed as K): 61.8 wt % | solubility 20° C. a.e. ([2]; listed as K): 54.6 wt % | solubility 20° C. a.i. ([2]; listed as K): 64 wt % | aqueous solubility wt % a.e. @20° C. ([2]; Table 10b, second experiment, dicamba acid and salts, listed as potassium salt): 54.6 wt % a.e. | aqueous solubility wt % a.i. @20° C. ([2]; Table 10b, second experiment, listed as potassium salt): 64 wt % a.i. | ppm Dicamba in distillate ([1]; pH 7.06): 0.6 ppm

NCCCCCCN [HMDA]
Comments (crystal formation) [2]: Pasty solid | solubility 0° C. a.e. [2]: 11.2 wt % | solubility 0° C. a.i. [2]: 14.1 wt % | solubility 20° C. a.e. [2]: 14.1 wt % | solubility 20° C. a.i. [2]: 17.8 wt %

CC(C)N [IPA]
Mean Dicamba in Distillate ([1]; 1% a.e. dicamba, solution pH 3.41): 1.42 ppm | Mean Dicamba in Distillate ([1]; 1% a.e. dicamba, solution pH 4.40): 0.42 ppm | Mean Dicamba in Distillate ([1]; 1% a.e. dicamba, solution pH 5.13): 0.37 ppm | Mean Dicamba in Distillate ([1]; 1% a.e. dicamba, solution pH 8.10): 0.72 ppm | Mean Dicamba in Distillate ([1]; 1% a.e. dicamba, solution pH 9.13): 1.22 ppm | Mean Dicamba in Distillate ([1]; 2% a.e. dicamba, solution pH 3.37): 3.65 ppm | Mean Dicamba in Distillate ([1]; 2% a.e. dicamba, solution pH 4.36): 1.42 ppm | Mean Dicamba in Distillate ([1]; 2% a.e. dicamba, solution pH 5.10): 0.94 ppm | Mean Dicamba in Distillate ([1]; 2% a.e. dicamba, solution pH 8.13): 0.75 ppm | Mean Dicamba in Distillate ([1]; 2% a.e. dicamba, solution pH 9.20): 3.43 ppm | Mean Dicamba in Distillate ([1]; 5% a.e. dicamba, solution pH 3.44): 5.85 ppm | Mean Dicamba in Distillate ([1]; 5% a.e. dicamba, solution pH 4.33): 3.14 ppm | Mean Dicamba in Distillate ([1]; 5% a.e. dicamba, solution pH 4.94): 3.77 ppm | Mean Dicamba in Distillate ([1]; 5% a.e. dicamba, solution pH 8.24): 2.47 ppm | Mean Dicamba in Distillate ([1]; 5% a.e. dicamba, solution pH 9.28): 12.57 ppm | ppm Dicamba in distillate ([1]; pH 8.24): 2.5 ppm
